Experimental findings from patent US11530196B2, “Pyrimidine compound acting on EGFR and ERBB2” (CHINA RESOURCES PHARMACEUTICAL HOLDINGS COMPANY LIMITED, priority 2019, dated 2022) are described below.

For series [1], the system named is A431 (EGFR wild type) cells. As to the kind of experiment: Anti-proliferation activity test against A431 cells. Type of series: cell-based. The note with it: Homo sapiens, A-431; A431, Cell-Titer Glo, 72 hours. The procedure: (2) Anti-Proliferation Activity Test of the Compound Against H1975 Cells and IC50 Test of Anti-Proliferation Activity Against A431 Cells
RPMI1640 medium, FBS fetal bovine serum, trypsin-EDTA, were all purchased from Giboco. DPBS was purchased from Corning, penicillin/streptomycin solution was purchased from Hyclone, and Cell-Titer Glo reagent was purchased from Promega (1kit, Cat. No. G7571). Plate reading instrument: Envision (PerkinElmer).
384-well plates in columns 1, 2, and 24 were added with 45 μL of medium, and the cell suspension was dispensed with Multi-drop at 45 μL per well (1000 cells) and incubated overnight in an incubator. The compound was added to the source plate according to the Echo dispensing requirements, the compound in the source plate was added to the inter plate and diluted to an intermediate concentration, then the compound in the source plate and the inter plate was added to the cell plate, and the cells were continued to be incubated in a incubator for 72 hours. After 72 hours, Cell-Titer Glo reagent and cells were removed and equilibrated at room temperature for 30 min. 25 μL of Cell-Titer Glo reagent was dispensed into 384-well plates with Multi-drop, the cell plate was vibrated at medium speed for 3 min, centrifuged at 1000 rpm for 2 min, and stood for 10 min. The plate was read by Envision (Luminescence). […]

Series [2] is described as follows: Compound stability test in plasma (human). It counts as in vitro ADME. As to the method: In this study, mouse, SD rat, Beagle, cynomolgus monkey and human plasma were used as materials to investigate the stability of the tested compounds in the plasma of the above five species. Propantheline, Enalapril, Bisacodyl and Procaine were used as control compounds.
The experimental conditions for the test compounds were as follows: • test concentration: 2 μM (DMSO ≤0.5%); • incubation times: 0, 10, 30, 60 and 120 minutes; • frozen plasma (from multiple species) was used in the test system; • incubation conditions: 37° C.
The mixed frozen plasma was thawed in a 37° C. water bath prior to the experiment. Plasma was centrifuged at 4000 rpm for 5 minutes and cleared if there was a clot. The pH will be adjusted to 7.4±0.1 if required.
The intermediate solution of 1 mM compound and positive control was prepared by diluting 10 mM stock solution with 90 μL of dimethyl sulfoxide. 100 μM solution was prepared by diluting 20 μL of intermediate solution (1 mM) with 180 μL of 45% methanol/water.
2 μL of 100 μM solution was added to 98 μL of blank plasma to achieve a final concentration of 2 μM (in duplicate) of the sample, and the sample was incubated in a 37° C. water bath. At each time point (0, 10, 30, 60 and 120 min), 400 μL of termination solution (200 ng/mL toluenesulfonylurea and 200 ng/mL labetalol, 50% ACN/MeOH) was added to precipitate the proteins and mixed thoroughly. […]

Series [3] has as its target Ba/F3 EGFR-V769_D770insASV (Homo sapiens, UniProt P00533, DUP767-769, cells depend on it). Briefly: Anti-proliferation against Ba/F3 exon 20 insertion mutant cells (ASV). The note with it: CTG, 72 hours, read-out: Mutant cells IC50 (anti-proliferation). Type of series: cell-based, mouse. The source says:
RPMI1640 medium was purchased from Hyclone, FBS fetal bovine serum was purchased from GBICO, and trypsin-EDTA were both purchased from Giboco. DPBS was purchased from Corning, penicillin/streptomycin solution was purchased from Hyclone, and Cell-Titer Glo reagent was purchased from Promega (Cat. No. G7572). Ba/F3 EGFR-D770_N771insSVD, Ba/F3 EGFR-H773_V774insNPH, Ba/F3 EGFR-V769_D770insASV, BaF3 ERBB2 A775_G776 ins YVMA, the cell lines were constructed by Beijing Kang Yuan Bochuang Biotechnology Co., Ltd. Plate reading instrument: Envision (PerkinElmer).
Cells in logarithmic growth phase were harvested and cell counts were performed using a […]. Cell viability was detected by the Taipan Blue rejection assay. The cell concentration was adjusted; the cell suspension was added to a 96-well plate separately. Cells in 96-well plates were incubated overnight at 37° C., 5% CO2, and 95% humidity. […] The cell plate was placed at room temperature to stabilize the cold light signal, and the cold light values were read. The data were analyzed using GraphPad Prism 7.0 software, and a nonlinear S-curve regression was used to fit the data to derive the dose-effect curve from which the IC50 values were calculated. […]

Chain of Ba/F3 EGFR-V769_D770insASV (P00533 with tags, fused parts or gaps DUP767-769): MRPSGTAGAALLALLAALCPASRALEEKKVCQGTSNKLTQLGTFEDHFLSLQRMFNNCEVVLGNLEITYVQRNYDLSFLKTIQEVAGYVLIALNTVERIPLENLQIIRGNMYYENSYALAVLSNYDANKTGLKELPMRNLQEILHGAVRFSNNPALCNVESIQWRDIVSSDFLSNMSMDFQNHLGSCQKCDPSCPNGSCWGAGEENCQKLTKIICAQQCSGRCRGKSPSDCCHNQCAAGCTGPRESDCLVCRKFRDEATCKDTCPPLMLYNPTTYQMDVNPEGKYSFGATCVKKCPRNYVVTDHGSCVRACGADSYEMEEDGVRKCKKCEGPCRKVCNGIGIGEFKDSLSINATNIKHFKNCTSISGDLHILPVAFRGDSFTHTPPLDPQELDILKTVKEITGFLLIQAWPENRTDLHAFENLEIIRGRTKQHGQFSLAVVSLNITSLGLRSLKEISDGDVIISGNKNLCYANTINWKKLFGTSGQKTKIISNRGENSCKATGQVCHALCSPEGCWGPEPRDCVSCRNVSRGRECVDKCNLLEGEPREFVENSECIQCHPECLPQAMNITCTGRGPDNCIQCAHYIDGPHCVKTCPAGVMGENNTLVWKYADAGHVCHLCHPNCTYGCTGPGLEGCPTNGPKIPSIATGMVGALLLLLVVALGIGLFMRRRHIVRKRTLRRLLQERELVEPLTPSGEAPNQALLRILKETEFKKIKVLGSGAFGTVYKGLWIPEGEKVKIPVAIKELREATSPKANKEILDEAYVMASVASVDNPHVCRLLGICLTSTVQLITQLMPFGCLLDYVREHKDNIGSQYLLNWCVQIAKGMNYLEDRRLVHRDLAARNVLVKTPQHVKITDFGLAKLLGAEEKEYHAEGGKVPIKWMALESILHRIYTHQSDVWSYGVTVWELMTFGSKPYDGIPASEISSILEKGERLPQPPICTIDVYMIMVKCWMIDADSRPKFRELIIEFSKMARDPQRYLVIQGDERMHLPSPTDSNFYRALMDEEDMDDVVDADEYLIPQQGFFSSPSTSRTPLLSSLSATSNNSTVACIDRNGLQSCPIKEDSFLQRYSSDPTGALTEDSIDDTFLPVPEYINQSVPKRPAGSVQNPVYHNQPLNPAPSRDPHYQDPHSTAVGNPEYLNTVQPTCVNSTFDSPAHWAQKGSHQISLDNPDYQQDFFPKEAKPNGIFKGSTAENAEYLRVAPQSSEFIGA

Broadly, the IC50 is the point on the concentration scale where inhibition reaches its midpoint. Take `C=CC(=O)Nc1cc(Nc2ncc(C(=O)OC(C)C)c(-c3cn(OC)c4ccccc34)n2)c(OC)cc1N(C)CCN(C)C.CS(=O)(=O)O` [Compound 1]: the 50% inhibitory concentration (IC50) in series [1] came out at 335 nM. Moreover, in series [2] (120 minutes, 2 μM, 37° C.), the “In vitro plasma stability (Residual percentage)” value was 19%. The half-life at 2 µM in series [2] (pH 7.4, 37° C., read-out: In vitro plasma half-life T1/2) was found to be 51.6 min. For the same compound, the GI50 in series [3] stood at 7 nM.
